From US20230000869A1, “NOVEL ALK2 INHIBITORS AND METHODS FOR INHIBITING BMP SIGNALING” (The Brigham and Women's Hospital, Inc., priority 2017, published 2023)
Where a name gives a salt, the structure may show the parent alone.

What was measured:
ALK2 = target: T1, ALK2 (Mus musculus, UniProt P37172); assay: Luciferase reporter gene assay for ALK2 activity (C2C12 BRE-Luc SMAD1/5/8 reporter, BMP6 agonist); type: cell-based; details: BMP6 50 ng/mL
T1 construct: endogenous in cells; host or cells: C2C12-BRE (BRE-Luc reporter line, G418 selection)
T1 sequence (P37172 21-509): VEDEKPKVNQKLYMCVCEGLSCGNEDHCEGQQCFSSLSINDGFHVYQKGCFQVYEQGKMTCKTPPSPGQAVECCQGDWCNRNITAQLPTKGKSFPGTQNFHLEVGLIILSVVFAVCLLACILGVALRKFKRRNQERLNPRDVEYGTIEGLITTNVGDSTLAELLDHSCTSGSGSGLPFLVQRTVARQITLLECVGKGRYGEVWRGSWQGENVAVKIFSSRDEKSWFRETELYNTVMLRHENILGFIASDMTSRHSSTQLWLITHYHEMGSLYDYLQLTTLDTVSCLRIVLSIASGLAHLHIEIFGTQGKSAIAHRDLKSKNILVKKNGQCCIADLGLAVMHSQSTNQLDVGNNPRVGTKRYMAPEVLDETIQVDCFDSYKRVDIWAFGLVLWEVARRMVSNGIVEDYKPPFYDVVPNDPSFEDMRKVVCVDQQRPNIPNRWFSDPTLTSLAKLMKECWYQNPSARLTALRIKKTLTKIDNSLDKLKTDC
Description: (§1) All cell lines were cultured in DMEM, supplemented with […] and 1% Pen/Strep. All media reagents were obtained from Gibco. BMP6, BMP9, and TGFβ were obtained from R&D Systems. C2C12-BRE and HEK293T-SBE were kept in selection with 400 ug/mL G418 from Invivogen.
(§2) In this reporter gene cell based ALK2 and TGFβ assay, the C2C12 cell line was employed for the measurement of ALK2 activity, using a BRE-Luc SMAD1/5/8 reporter and BMP6 as the agonist. The HEK293T cell line was employed to measure TGFβ activity, using a SBE-Luc SMAD2/3 reporter and TGFβ as the agonist. Luciferase reporter assays were read using Promega Steady-Glo Luciferase Assay System.
(§3) Cells were plated in 96 well white clear bottom assay plates at 10 k cells/well for C2C12-BRE, 15 k cells/well for HEK293-SBE in DMEM containing 2% FBS 1% P/S. Cells were given a minimum of 4 hours in incubator at 37° C./5% CO2 to adhere prior to further treatment. Compounds were diluted in DMSO to a 10-point dilution curve and added to the plate to reach the following final concentrations: 10000, 3000, 1000, 300, 100, and 30 nM in the HEK293-SBE assay and 1000, 300, 100, 30, 10, 3, 1, 0.3 nM in the C2C12-BRE assay. Negative and positive control wells received 2 μL DMSO as vehicle treatment. Plates were returned to incubator for 45 minutes and then BMP6 and TGFB were added to a final concentration of 50 ng/mL and 5 ng/mL, respectively. Plates were returned to the incubator and left overnight. After a minimum of 18 hours post BMP6/TGFβ addition, the plates were read using Promega Steady-Glo Luciferase Assay System. A 1:1 mixture of prepared steady-glo and phenol free DMEM was prepared, and 50 μL/well was added to the assay plates whose media had been flicked off. Plates were given 10 minutes post steady-glo addition before luminescence was read on a Spectramax M5e microplate reader. Negative control wells were averaged and subtracted from all other wells on the plate. Inhibition was calculated as the percent of signal loss compared to the averaged positive control wells.

TGFβ = assay: Luciferase reporter gene assay for TGFβ activity (HEK293T SBE-Luc SMAD2/3 reporter, TGFβ agonist); type: cell-based; details: Homo sapiens, HEK-293T, TGFβ 5 ng/mL
Description: as §1, §2, §3

| Structure (SMILES) | IC50 (ALK2) | IC50 (TGFβ) |
| --- | --- | --- |
| COc1cc2c(-c3cnn4cc(N5CCN(c6ccncc6)CC5)cnc34)ccnc2cc1F [Compound 202] | 0.507 µM | 0.359 µM |
| CN1CCN(C2CCN(c3cnc4c(-c5cccc(S(C)(=O)=O)c5)cnn4c3)CC2)CC1 [Compound 63] | 0.977 µM | 6.83 µM |
| COc1cc2c(-c3cnn4cc(N5CCC(N6CC[N+](C)([O-])CC6)CC5)cnc34)ccnc2cc1F [Compound 43] | 0.631 µM | 1.92 µM |
| COc1cc2c(-c3cnn4cc(N5CCC(N6CCNCC6)CC5)cnc34)ccnc2cc1F [Compound 39, 7-fluoro-6-methoxy-4-[6-(4-piperazin-1-yl-1-piperidyl)pyrazolo[1,5-a]pyrimidin-3-yl]quinoline] | 0.011 µM | 0.069 µM |
| NC(=O)c1cccc2c(-c3cnn4cc(N5CCN(C6CCNCC6)CC5)cnc34)cccc12 [Compound 4] | > 3 µM | > 3 µM |
| CS(=O)(=O)c1cccc(-c2cnn3cc(N4CCN(C5CCNCC5)CC4)cnc23)c1 [Compound 213, 3-(3-(methylsulfonyl)phenyl)-6-(4-(piperidin-4-yl)piperazin-1-yl)pyrazolo[1,5-a]pyrimidine trihydrochloride] | < 0.001 µM | < 0.001 µM |
| COc1cc2c(-c3cnn4cc(N5CCC(N6CCN(C)CC6)C5)cnc34)ccnc2cc1F (stereo not drawn) [Compound 48] | 0.05 µM | 0.914 µM |
| Cc1cc(-c2cnn3cc(N4CCN(C5CCOCC5)CC4)cnc23)c2ccccc2n1 [Compound 22] | 0.261 µM | 0.086 µM |
| Cc1cc(-c2cnn3cc(N4CCN(C5(C)CCNCC5)CC4)cnc23)c2ccccc2n1 [Compound 33] | 0.094 µM | 0.037 µM |
| COc1cc2c(-c3cnn4cc(N5CCN(CC(C)(C)O)CC5)cnc34)ccnc2cc1F [Compound 200] | 0.094 µM | 0.324 µM |
| COc1ccc2nccc(-c3cnn4cc(N5CCC(N6CCN(C)CC6)CC5)cnc34)c2n1 [Compound 60, 2-methoxy-8-[6-[4-(4-methylpiperazin-1-yl)-1-piperidyl]pyrazolo[1,5-a]pyrimidin-3-yl]-1,5-naphthyridine] | 0.042 µM | > 3 µM |
| Cc1cc(-c2cnn3cc(N4CC(c5ccncc5)C4)cnc23)c2ccccc2n1 [Compound 210] | 0.017 µM | 0.091 µM |
| CCN1CCN(C2CCN(c3cnc4c(-c5ccnc6cc(F)c(OC)cc56)cnn4c3)CC2)CC1 [Compound 40] | 0.114 µM | 0.327 µM |
| COc1cc2c(-c3cnn4cc(N5CCC(N6C[C@H]7C[C@@H]6CN7C)CC5)cnc34)ccnc2cc1F [Compound 55] | 0.009 µM | 0.268 µM |
| COc1cc2c(-c3cnn4cc(N5CCC(C(C)(C)N)CC5)cnc34)ccnc2cc1F [Compound 211] | 0.051 µM | 0.416 µM |
| CN1CCN(C2CCN(c3cnc4c(-c5cccc6c(C(N)=O)cccc56)cnn4c3)CC2)CC1 [Compound 10] | 0.041 µM | 0.076 µM |
| CN1CCN(C2CCN(c3cnc4c(-c5cn[nH]c5)cnn4c3)CC2)CC1 [Compound 14] | 0.186 µM | > 3 µM |
| COc1cc2c(-c3cnn4cc(N5CCNCC5=O)cnc34)ccnc2cc1F [Compound 326] | > 1 µM | > 3 µM |
| COc1cc2c(-c3cnn4cc(N5CCN(C)CC5)cnc34)ccnc2cc1F [Compound 195] | 0.298 µM | 0.286 µM |
| Cc1cc(-c2cnn3cc(N4CCC(N5CCCN(C)CC5)CC4)cnc23)c2ccccc2n1 [Compound 62] | 0.09 µM | 0.037 µM |
| Cc1cc(-c2cnn3cc(N4CCN(CCN5CCOCC5)CC4)cnc23)c2ccccc2n1 [Compound 19] | 0.113 µM | 0.064 µM |
| COc1cc2c(-c3cnn4cc(N5CC(CC#N)(N6CCN(C)CC6)C5)cnc34)ccnc2cc1F [Compound 201] | 0.013 µM | 0.327 µM |
| COc1cc2c(-c3cnn4cc(N5CCC(N6CCC(N(C)C)C6)CC5)cnc34)ccnc2cc1F (stereo not drawn) [Compound 190] | 0.031 µM | 0.128 µM |
| COc1cc2c(-c3cnn4cc(N5CCOCC5)cnc34)ccnc2cc1F [Compound 192] | 0.089 µM | 0.184 µM |
| COc1cc2c(-c3cnn4cc(N5CCC(C)(N6CCN(C)CC6)CC5)cnc34)ccnc2cc1F [Compound 57] | 0.207 µM | > 1 µM |

The remaining lines, values ahead:

| IC50 (ALK2) | IC50 (TGFβ) | Structure (SMILES) |
| --- | --- | --- |
| > 1 µM | > 3 µM | COc1cc2c(-c3cnn4cc(N5CCC(N6CCN(C)CC6=O)CC5)cnc34)ccnc2cc1F [Compound 329] |
| 0.476 µM | 0.605 µM | CN1CCN(C2CCN(c3cnc4c(-c5ccnc6cc[nH]c56)cnn4c3)CC2)CC1 [Compound 228] |
| 0.018 µM | < 0.02 µM | Cc1cc2c(-c3cnn4cc(N5CC(N6CCOCC6)C5)cnc34)ccnc2cc1F [Example 301] |
| 0.014 µM | 0.267 µM | COc1cc(F)c2nccc(-c3cnn4cc(N5CCC(N6CCN(C)CC6)CC5)cnc34)c2c1 [Compound 273] |
| 0.016 µM | 0.291 µM | CN1CCN(C2CCN(c3cnc4c(-c5ccnc6cc(F)c(Cl)cc56)cnn4c3)CC2)CC1 [Compound 240] |
| > 1 µM | > 1 µM | CN1CCN(C2CCN(c3cnc4c(-c5ccnc6ccc(C#N)cc56)cnn4c3)CC2)CC1 [Compound 234] |
| 0.159 µM | 0.595 µM | Cc1ccc2nccc(-c3cnn4cc(N5CC(c6ccncc6)C5)cnc34)c2c1 [Example 292] |
| > 1 µM | > 3 µM | COc1cc2c(-c3nnc4cc(N5CCC(N6CCN(C)CC6)CC5)ccn34)ccnc2cc1F [Compound 354] |
| 0.164 µM | 0.064 µM | Cc1cc(-c2cnn3cc(N4CCC(N5CCN(C)CC5)CC4)cnc23)c2cc(F)cc(F)c2n1 [Compound 276] |
| 0.013 µM | > 3 µM | CN1CCN(C2CCN(c3cnc4c(-c5ccnc6[nH]ccc56)cnn4c3)CC2)CC1 [Compound 247] |
| 0.068 µM | 0.028 µM | Cc1cc(-c2cnn3cc(N4CCC(N5CCN(C)CC5)CC4)cnc23)c2ccc(F)cc2n1 [Compound 255] |
| 0.034 µM | 0.142 µM | COc1cc2c(-c3cnn4cc(N5CCC(N6C[C@@H]7C[C@H]6CN7C)CC5)cnc34)ccnc2cc1F [Compound 215] |
| 0.021 µM | > 1 µM | COc1cc2c(-c3cnn4cc(N5C[C@@H]6C(N(C)C)[C@@H]6C5)cnc34)ccnc2cc1F (stereo partly drawn) [Example 297] |
| > 1 µM | 0.468 µM | Cc1cc(-c2cnn3cc(N4CCC(N5CCN(C)CC5)CC4)cnc23)c2ccc(C(F)(F)F)cc2n1 [Compound 245] |
| 0.092 µM | > 1 µM | CN1CCN(C2CCN(c3cnc4c(-c5ccnc6ccc(Cl)cc56)cnn4c3)CC2)CC1 [Compound 241] |
| 0.903 µM | 0.826 µM | Cc1cc2nccc(-c3cnn4cc(N5CCC(N6CCN(C)CC6)CC5)cnc34)c2[nH]1 [Compound 227] |
| 0.244 µM | > 1 µM | COc1ccc2c(-c3cnn4cc(N5CCC(N6CCN(C)CC6)CC5)cnc34)ccnc2c1 [Compound 254] |
| 0.025 µM | > 1 µM | CN1CCN(C2CCN(c3cnc4c(-c5ccnc6ccc(C(F)(F)F)cc56)cnn4c3)CC2)CC1 [Compound 235] |
| 0.055 µM | > 1 µM | CNc1ccc2nccc(-c3cnn4cc(N5CCC(N6CCN(C)CC6)CC5)cnc34)c2c1 [Compound 279] |
| 0.03 µM | 0.328 µM | CN1CCN(C2CCN(c3cnc4c(-c5ccnc6cc(Cl)ccc56)cnn4c3)CC2)CC1 [Compound 244] |
